Tested on: stratum corneum of normal human skin fragments kept in survival
Assay: Cohesion of the stratum corneum on skin kept in survival, histological slices stained with hemalun-eosin
Type: cell-based
Settings: for % increase in desquamation relative to the control skin / Scores (histological evaluation of the cohesion of the horny layer, semi-quantitative scores): topical; for Scores (histological evaluation of the cohesion of the horny layer, semi-quantitative scores): average of 6 donors, score 0-4, the higher the score the lower the cohesion
Protocol: Fragments of normal human skin are obtained by plastic surgery from 6 different donors. They are placed in inserts, which are themselves positioned on culture wells containing culture medium specifically adapted for maintaining the skin fragments in survival (antibiotics, FCS). The anisic acid is applied topically according to the following protocol and in comparison with an untreated skin (control skin): • control skin • skin+[…] • skin+[…] The cohesion of the horny layer was evaluated using stained histological slices, according to the following semi-quantitative scores (evaluation on 10 to 15 fields at magnification 40): • score 0 absence of change of cohesion of the stratum corneum • score 1 slight reduction in cohesion of the stratum corneum • score 2 moderate reduction in cohesion of the stratum corneum • score 3 large reduction in cohesion of the stratum corneum • score 4 very large reduction in cohesion of the stratum corneum with exfoliation. An average is determined for each parameter from the results obtained on the 6 skin models. The statistical analysis is performed by means of the “reduced deviation” Student test or the paired samples test, with a risk of 5%.

[1] = 0.1% anisic acid, listed as anisic acid
[2] = 1% anisic acid, listed as anisic acid

COc1ccc(C(=O)O)cc1 [Anisic acid, 4-methoxybenzoic acid]
desquamating activity after topical application relative to the control skins (0.1% and 1%, histological reduction in the cohesion of the stratum corneum, no dose effect): significant desquamating activity | % increase in desquamation relative to the control skin (0.1% anisic acid): 95.9% | Scores (histological evaluation of the cohesion of the horny layer, semi-quantitative scores) (0.1% anisic acid): 1.43 ± 0.7 | Scores (histological evaluation of the cohesion of the horny layer, semi-quantitative scores) [1]: 1.43 | % increase in desquamation relative to the control skin [1]: 95.9% | % increase in desquamation relative to the control skin (1% anisic acid): 115% | Scores (histological evaluation of the cohesion of the horny layer, semi-quantitative scores) (1% anisic acid): 1.57 ± 0.4 | Scores (histological evaluation of the cohesion of the horny layer, semi-quantitative scores) [2]: 1.57 | % increase in desquamation relative to the control skin [2]: 115%
